In ChEMBL document CHEMBL1201862, “PubChem BioAssay data set” (2004):
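Interpolation was linear, between the two tested concentrations surrounding the appropriate level; five concentrations were tested over 48 hours in 96-well plates. GI50 marks 50% less growth.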 Calls of active or inactive are those of the source. Cut-off read from the data, not from the text of the source: active = GI50 up to about 1.1 µM and inactive = higher.

Experiments:
Experiment in all cases: NCI tumour cell line growth inhibition, 48 h
NCI-H23 = system: NCI-H23
HT-29 = system: HT-29
SK-MEL-5 = system: SK-MEL-5
MDA-MB-435 = system: MDA-MB-435
SF-539 = system: SF-539
SW-620 = system: SW-620
A549 = system: A549
CCRF-CEM = system: CCRF-CEM
T47D = system: T47D
OVCAR-3 = system: OVCAR-3
COLO 205 = system: COLO 205
SF-268 = system: SF-268
Malme-3M = system: Malme-3M
M14 = system: M14
LOX IMVI = system: LOX IMVI
HL-60 = system: HL-60
OVCAR-5 = system: OVCAR-5
OVCAR-4 = system: OVCAR-4
Hs-578T = system: Hs-578T
HCC 2998 = system: HCC 2998

Measured: GI50

C[C@]12CCC3c4ccc(O)cc4CC[C@H]3C1CC(=O)N(CCN1CCCC1)C2=O (stereo not given in full)
inactive: NCI-H23 > 10 µM | HT-29 > 10 µM | SK-MEL-5 > 10 µM | MDA-MB-435 > 10 µM | SF-539 > 10 µM | SW-620 > 10 µM | A549 > 10 µM | CCRF-CEM > 10 µM | T47D > 10 µM | OVCAR-3 > 10 µM | COLO 205 > 10 µM | SF-268 > 10 µM | Malme-3M > 10 µM | M14 > 10 µM | LOX IMVI > 10 µM | HL-60 > 10 µM | OVCAR-5 > 10 µM | OVCAR-4 > 10 µM | Hs-578T > 10 µM | HCC 2998 > 10 µM

COc1cccc2c(NNc3ccc(Cl)cc3)c3ccc([N+](=O)[O-])cc3nc12
inactive: NCI-H23 13.3 µM | HT-29 14.2 µM | SK-MEL-5 12.4 µM | MDA-MB-435 29.7 µM | SF-539 17.7 µM | SW-620 13.8 µM | A549 12.6 µM | CCRF-CEM 2.74 µM | T47D 5.43 µM | OVCAR-3 12.5 µM | COLO 205 21.6 µM | SF-268 12.7 µM | Malme-3M 10.3 µM | M14 12.3 µM | LOX IMVI 11.3 µM | HL-60 5.92 µM | OVCAR-5 22.9 µM | OVCAR-4 11.9 µM | Hs-578T 14.5 µM | HCC 2998 13.8 µM
